Results taken from ChEMBL document CHEMBL1201862, “PubChem BioAssay data set” (2004).
Calls of active or inactive are those of the source.

Experiments:
Mu-type opioid receptor [1] = target: T1, Mu-type opioid receptor (Homo sapiens, UniProt P35372); type: functional, cell-based
[2] = target: 5-hydroxytryptamine receptor 2A (Mus musculus, UniProt P35363); type: functional, cell-based;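 further: CHO-K1 cells with tagged receptor and beta-arrestin; agonist potency measured as compound-induced activation of the receptor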
5-hydroxytryptamine receptor 2A, sequence (P35363 whole entry): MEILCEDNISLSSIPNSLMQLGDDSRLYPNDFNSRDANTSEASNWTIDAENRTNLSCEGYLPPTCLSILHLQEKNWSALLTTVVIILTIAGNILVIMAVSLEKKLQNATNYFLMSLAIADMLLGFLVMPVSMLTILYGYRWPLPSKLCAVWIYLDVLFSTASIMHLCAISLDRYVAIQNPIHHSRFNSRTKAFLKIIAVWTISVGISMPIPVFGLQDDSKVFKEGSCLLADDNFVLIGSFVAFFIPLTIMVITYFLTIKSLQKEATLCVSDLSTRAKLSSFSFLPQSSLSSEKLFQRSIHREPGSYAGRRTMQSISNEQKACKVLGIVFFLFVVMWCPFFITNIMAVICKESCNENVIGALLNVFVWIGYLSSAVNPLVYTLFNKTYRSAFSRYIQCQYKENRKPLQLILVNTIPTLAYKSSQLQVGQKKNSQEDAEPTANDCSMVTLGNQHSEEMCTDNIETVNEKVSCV

[3] = target: Fructose-bisphosphate aldolase (Mycobacterium tuberculosis, UniProt P9WQA3); experiment: Fluorescence-based biochemical high throughput dose response assay for inhibitors of the fructose-bisphosphate aldolase (FBA) of M. tuberculosis.; type: functional
Fructose-bisphosphate aldolase, sequence (P9WQA3 whole entry): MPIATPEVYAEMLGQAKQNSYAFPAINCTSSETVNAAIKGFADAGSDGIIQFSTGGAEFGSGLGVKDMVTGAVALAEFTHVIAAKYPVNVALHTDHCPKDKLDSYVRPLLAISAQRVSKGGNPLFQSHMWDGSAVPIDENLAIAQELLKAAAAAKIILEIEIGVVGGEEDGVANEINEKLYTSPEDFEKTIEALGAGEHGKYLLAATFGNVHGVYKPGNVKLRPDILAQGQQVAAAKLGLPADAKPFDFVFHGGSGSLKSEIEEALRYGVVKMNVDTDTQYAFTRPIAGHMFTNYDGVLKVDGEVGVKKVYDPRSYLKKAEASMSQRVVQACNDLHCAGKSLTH

[4] = viability of PTEN-deleted HCT116 cells – cell-based, HCT116 PTEN knockout, dose response (AID 1047); type: functional;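 further: HCT116 colon tumor cells with PTEN knocked out; cells exposed to compound for 60 hours before readout; potency for loss of cell viability measured by luminescence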
[5] = viability of HCT116 lacking mutant beta-catenin – cell-based, human colon tumor, dose response (AID 1045); type: functional;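 further: HCT116 colon tumor cells with beta catenin knocked out; cells exposed to compound for 60 hours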
[6] = HEK-293T cell viability reduction – luminescence, B-cell screen hits, cytotoxicity control for BCR NF-kB inhibitor project, dose response (AID 489021); type: functional, cell-based;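 further: HEK-293T cells carrying an NF-kB luciferase reporter; cells exposed to compound for about 14 hours before viability readout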
[7] = target: Hepatocyte nuclear factor 4-alpha (Homo sapiens, UniProt P41235); type: functional, cell-based;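 further: biochemical luminescence-based dose-response counterscreen measuring inhibition of HNF4 dimerization, run alongside a screen for blockers of ABHD5–perilipin-5 interaction; split luciferase complementation of HNF4 fusion proteins in cell lysate measuring dimerization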
Hepatocyte nuclear factor 4-alpha, sequence (P41235 whole entry, the tested form may be a part): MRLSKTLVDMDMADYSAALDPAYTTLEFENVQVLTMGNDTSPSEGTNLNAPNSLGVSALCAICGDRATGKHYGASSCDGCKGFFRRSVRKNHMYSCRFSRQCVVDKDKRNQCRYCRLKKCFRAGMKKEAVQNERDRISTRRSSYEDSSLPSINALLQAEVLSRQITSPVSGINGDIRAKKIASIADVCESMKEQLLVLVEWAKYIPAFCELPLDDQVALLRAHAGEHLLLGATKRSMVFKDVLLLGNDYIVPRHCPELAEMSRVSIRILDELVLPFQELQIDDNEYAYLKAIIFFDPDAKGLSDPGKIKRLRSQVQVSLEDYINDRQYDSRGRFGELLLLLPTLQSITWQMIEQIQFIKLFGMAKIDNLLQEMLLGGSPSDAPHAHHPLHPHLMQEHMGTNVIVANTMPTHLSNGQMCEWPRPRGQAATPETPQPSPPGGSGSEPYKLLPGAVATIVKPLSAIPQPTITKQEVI

fMet-Leu-Phe receptor = fMet-Leu-Phe receptor (Homo sapiens, UniProt P21462); experiment: formyl peptide receptor binders – dose response (AID 519); type: functional
Cytochrome P450 3A4 = Cytochrome P450 3A4 (Homo sapiens, UniProt P08684);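 further: CYP3A4 tested as one member of a cytochrome P450 panel screen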
[8] = target: T2, Polyadenylate-binding protein 1 (Homo sapiens, UniProt P11940); experiment: MLLE binding blockers, Cy5 peptide tracer – biochemical, fluorescence polarization, Cy5-PAM2 peptide, secondary, miRNA deadenylation inhibitor project, dose response (AID 602260); type: functional; details: read-out: IC50_Mean
[9] = target: T2, Polyadenylate-binding protein 1; experiment: MLLE domain peptide-binding blockers, IC50 – biochemical, fluorescence polarization, FITC-PAM2 peptide, dose response (AID 602259); type: functional; details: read-out: IC50_Mean
[10] = target: Botulinum neurotoxin type F (Clostridium botulinum, UniProt P30996); experiment: High-throughput multiplex microsphere dose response for inhibitors of toxin protease, specifically Botulinum neurotoxin light chain F protease, compounds from Cherry Pick 02.; type: functional; details: read-out: EC50_MICROM
Botulinum neurotoxin type F, sequence (P30996 1-436 limits assumed): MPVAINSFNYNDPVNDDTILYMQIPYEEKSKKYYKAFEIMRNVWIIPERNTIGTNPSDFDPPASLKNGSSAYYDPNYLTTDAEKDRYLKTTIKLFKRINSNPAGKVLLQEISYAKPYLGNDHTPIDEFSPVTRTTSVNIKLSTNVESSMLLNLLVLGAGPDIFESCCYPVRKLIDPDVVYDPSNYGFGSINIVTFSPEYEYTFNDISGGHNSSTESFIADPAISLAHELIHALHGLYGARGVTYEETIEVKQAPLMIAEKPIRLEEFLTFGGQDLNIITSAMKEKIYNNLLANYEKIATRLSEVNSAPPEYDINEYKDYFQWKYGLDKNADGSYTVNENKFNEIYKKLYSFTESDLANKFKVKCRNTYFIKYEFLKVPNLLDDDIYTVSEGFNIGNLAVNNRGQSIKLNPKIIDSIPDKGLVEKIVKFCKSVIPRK

[11] = target: Luciferin 4-monooxygenase (Photinus pyralis, UniProt P08659); experiment: inhibition of purified Photinus pyralis luciferase – biochemical, luminescence, dose response (AID 1891)
[12] = Luminescence Cell-Based Dose Confirmation HTS to Identify Inhibitors of Platelet Dense Granule Release. [Related pubchem assays: 1663 (Primary HTS), 1678 (Summary of Project)]; type: functional
[13] = target: Nuclear receptor subfamily 5 group A member 2 (Homo sapiens, UniProt O00482); type: functional, cell-based;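 further: HEK293T cells transfected with LRH-1 and a StAR promoter luciferase reporter; potency for inhibitors that lower LRH-1 driven reporter light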
Nuclear receptor subfamily 5 group A member 2, sequence (O00482 whole entry): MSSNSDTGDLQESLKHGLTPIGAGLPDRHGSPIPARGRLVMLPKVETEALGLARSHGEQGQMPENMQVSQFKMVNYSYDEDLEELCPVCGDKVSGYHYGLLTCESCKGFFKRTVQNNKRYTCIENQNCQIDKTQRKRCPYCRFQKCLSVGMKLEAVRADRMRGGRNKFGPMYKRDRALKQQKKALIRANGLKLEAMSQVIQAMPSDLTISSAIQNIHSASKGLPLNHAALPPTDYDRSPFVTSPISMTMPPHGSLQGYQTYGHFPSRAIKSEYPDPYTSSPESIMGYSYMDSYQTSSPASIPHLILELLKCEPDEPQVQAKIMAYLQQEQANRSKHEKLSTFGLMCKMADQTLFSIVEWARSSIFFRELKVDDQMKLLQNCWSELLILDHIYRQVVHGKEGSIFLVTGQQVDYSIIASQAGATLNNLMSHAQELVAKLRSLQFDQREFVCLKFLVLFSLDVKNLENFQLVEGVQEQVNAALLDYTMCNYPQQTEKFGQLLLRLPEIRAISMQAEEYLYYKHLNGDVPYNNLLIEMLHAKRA

Steroidogenic factor 1 = Steroidogenic factor 1 (Homo sapiens, UniProt Q13285); experiment: Counterscreen for inverse agonists of the liver receptor homolog-1 (LRH-1; NR5A2): Luminescence-based cell-based high throughput dose response assay to identify inverse agonists of the Steroidogenic Factor 1 Nuclear Receptor (SF1; NR5A1).; type: functional
Steroidogenic factor 1, sequence (Q13285 whole entry): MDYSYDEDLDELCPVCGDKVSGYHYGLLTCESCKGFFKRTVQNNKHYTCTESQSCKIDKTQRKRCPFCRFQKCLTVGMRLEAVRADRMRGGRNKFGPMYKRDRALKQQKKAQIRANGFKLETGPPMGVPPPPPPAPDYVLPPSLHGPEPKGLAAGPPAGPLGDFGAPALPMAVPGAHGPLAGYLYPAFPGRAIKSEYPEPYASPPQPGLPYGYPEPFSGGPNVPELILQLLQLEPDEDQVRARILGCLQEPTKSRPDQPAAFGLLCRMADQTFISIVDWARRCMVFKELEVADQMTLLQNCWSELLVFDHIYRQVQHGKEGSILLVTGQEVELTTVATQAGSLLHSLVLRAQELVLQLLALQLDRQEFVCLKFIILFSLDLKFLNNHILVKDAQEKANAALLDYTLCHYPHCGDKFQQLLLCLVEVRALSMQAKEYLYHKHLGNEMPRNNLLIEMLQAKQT

[14] = nonselective StAR promoter luciferase inhibitors – cell-based, luminescence, luciferase reporter, counter-screen for LRH-1 inverse agonist project, dose response (AID 651969); type: functional
[15] = target: DNA dC->dU-editing enzyme APOBEC-3A (Homo sapiens, UniProt P31941); experiment: Dose Response confirmation of small molecule APOBEC3A DNA Deaminase Inhibitors via a fluorescence-based single-stranded DNA deaminase assay. [Related pubchem assays (depositor defined):AID493011, AID493024]; type: functional
[16] = target: DNA dC->dU-editing enzyme APOBEC-3G (Homo sapiens, UniProt Q9HC16); type: functional;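 further: Dose-response counterscreen measuring inhibition of APOBEC3G DNA deaminase activity, run while confirming APOBEC3A inhibitors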
Beta-galactosidase [17] = target: T3, Beta-galactosidase (Escherichia coli, UniProt Q8VNN2); experiment: Dose response counterscreen for EBI2 assay utilizing the enzyme, b-galactosidase.; type: functional
T3 sequence (Q8VNN2 whole entry): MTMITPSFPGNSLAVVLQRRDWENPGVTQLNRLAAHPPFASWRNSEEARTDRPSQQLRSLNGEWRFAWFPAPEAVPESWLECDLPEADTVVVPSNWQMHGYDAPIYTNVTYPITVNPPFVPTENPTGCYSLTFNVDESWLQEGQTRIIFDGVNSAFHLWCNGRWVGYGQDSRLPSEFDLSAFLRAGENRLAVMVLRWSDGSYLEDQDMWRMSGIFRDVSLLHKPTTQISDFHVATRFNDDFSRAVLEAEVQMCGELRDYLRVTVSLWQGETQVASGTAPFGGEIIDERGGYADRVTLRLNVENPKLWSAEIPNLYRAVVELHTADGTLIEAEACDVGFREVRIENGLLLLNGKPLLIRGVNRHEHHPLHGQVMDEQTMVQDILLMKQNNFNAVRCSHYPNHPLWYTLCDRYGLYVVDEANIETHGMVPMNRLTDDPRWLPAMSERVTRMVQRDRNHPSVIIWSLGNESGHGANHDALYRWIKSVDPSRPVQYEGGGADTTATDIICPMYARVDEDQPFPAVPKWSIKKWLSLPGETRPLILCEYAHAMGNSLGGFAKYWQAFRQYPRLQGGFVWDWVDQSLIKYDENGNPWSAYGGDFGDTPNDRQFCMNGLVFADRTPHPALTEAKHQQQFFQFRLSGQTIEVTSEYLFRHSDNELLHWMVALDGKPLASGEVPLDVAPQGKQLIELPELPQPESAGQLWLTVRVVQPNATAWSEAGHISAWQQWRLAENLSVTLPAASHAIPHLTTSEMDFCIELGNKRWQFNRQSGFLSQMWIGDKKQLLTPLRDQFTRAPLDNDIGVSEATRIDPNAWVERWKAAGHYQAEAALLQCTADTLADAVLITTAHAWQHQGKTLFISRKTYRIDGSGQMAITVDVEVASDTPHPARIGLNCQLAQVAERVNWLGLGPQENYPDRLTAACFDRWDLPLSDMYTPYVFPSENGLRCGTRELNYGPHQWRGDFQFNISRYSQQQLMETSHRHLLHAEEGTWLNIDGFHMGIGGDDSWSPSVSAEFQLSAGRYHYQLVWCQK

Nonstructural protein 1 = Nonstructural protein 1 (Influenza A virus, UniProt Q194T2); type: functional, Influenza A virus (A/California/07/2009(H1N1))
[18] = target: 26S proteasome non-ATPase regulatory subunit 14 (Homo sapiens, UniProt O00487); experiment: inhibition of proteasome subunit RPN11 – biochemical, fluorescence polarization, uHTS hits, confirmation (AID 602368); type: functional
[19] = target: 72 kDa type IV collagenase (Homo sapiens, UniProt P08253); experiment: Dose Response validation of uHTS RPN11 inhibitor hits using a MMP-2 Fluorescence assay.; type: functional
Prothrombin = Prothrombin (Bos taurus, UniProt P00735); experiment: thrombin protease inhibitors – biochemical, fluorescence polarization, uHTS hits, dose response (AID 602369); type: functional
cells [20] = type: functional, cell-based
[21] = target: Nuclear receptor subfamily 0 group B member 1 (Homo sapiens, UniProt P51843); type: functional, cell-based;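 further: HEK293T cells transfected with SF-1 and DAX-1 plus StAR promoter luciferase reporter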
Nuclear receptor subfamily 0 group B member 1, sequence (P51843 whole entry): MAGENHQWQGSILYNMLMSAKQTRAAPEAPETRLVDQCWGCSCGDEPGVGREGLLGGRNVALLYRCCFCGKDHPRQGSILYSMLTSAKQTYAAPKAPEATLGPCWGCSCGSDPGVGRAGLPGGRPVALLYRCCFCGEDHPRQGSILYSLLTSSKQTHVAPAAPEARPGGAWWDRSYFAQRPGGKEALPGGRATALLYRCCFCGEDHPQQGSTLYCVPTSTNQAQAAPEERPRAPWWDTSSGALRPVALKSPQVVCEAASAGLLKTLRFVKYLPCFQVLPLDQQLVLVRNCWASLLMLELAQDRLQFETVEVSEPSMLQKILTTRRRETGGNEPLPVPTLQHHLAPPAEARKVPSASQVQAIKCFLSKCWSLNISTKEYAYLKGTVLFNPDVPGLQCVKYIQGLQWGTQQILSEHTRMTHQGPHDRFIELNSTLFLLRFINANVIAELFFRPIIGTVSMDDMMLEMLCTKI

[22] = Trypanosoma cruzi growth suppression in host cells – NIH3T3 host cells, beta-gal luminescence, confirmation (AID 2044); type: functional, cell-based;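 further: intracellular parasites grown in NIH/3T3 mouse fibroblasts as host cells; luminescent beta-galactosidase reporter signal from transgenic T. cruzi replicating inside host cells; inhibitors lower the luminescence signal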
[23] = NIH3T3 cell viability loss – ATP luminescence, mouse fibroblasts, counter-screen, dose response (AID 2010); type: functional, cell-based;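 further: cells exposed to compound for about 90 hours before reading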
[24] = Luminescence Cell-Based Dose Retest to Confirm Inhibitors of Cancer Stem Cells. [Related pubchem assays (depositor defined):AID2717, AID2721]; type: functional; details: Homo sapiens
[25] = target: DNA repair protein RAD52 homolog (Homo sapiens, UniProt P43351); type: functional, biochemical
[26] = HGIII-sPLA2 enzyme inhibition potency – biochemical, QFRET, IC50, dose response (AID 743457);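 further: green fluorescence rise as the enzyme cleaves BODIPY PC-A2 in liposomes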
Melanocortin receptor 4 = Melanocortin receptor 4 (Homo sapiens, UniProt P32245); type: functional, cell-based;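 further: Cell-based assay with luminescence read-out, confirmatory dose-response testing for agonist activity of biased ligands at MC4R; human U2OS cells with tagged receptor and beta-arrestin; potency of agonists that increase receptor coupling to beta-arrestin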
cells [27] = type: functional, cell-based; remark: listed apart in the source
[28] = target: T4, Trace amine-associated receptor 1 (Homo sapiens, UniProt Q96RJ0); experiment: Fluorescence-based cell-based high throughput dose response assay to identify agonists of the human trace amine associated receptor 1 (TAAR1).; type: functional
T4 sequence (Q96RJ0 whole entry): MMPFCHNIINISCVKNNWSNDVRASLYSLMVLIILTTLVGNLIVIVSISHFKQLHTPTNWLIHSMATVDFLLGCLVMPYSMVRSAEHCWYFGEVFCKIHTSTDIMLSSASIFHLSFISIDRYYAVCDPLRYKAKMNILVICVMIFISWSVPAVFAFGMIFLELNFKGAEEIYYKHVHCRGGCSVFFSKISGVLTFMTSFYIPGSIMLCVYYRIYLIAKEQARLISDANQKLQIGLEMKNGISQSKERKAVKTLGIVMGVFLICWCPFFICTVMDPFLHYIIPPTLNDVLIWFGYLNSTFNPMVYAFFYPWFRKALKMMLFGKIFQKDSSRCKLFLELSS

[29] = target: T4, Trace amine-associated receptor 1; experiment: Counterscreen for agonists of the human trace amine associated receptor 1 (hTAAR1): Fluorescence-based cell-based high throughput dose response assay to identify hTAAR1 agonist that also desensitize TAAR1 receptor response.; type: functional
cells [30] = type: functional, cell-based; remark: listed apart in the source
[31] = target: T5, Delta-type opioid receptor (Homo sapiens, UniProt P41143); experiment: HTS Image-Based Screen for Antagonists of the DOR Receptor. [Related pubchem assays (depositor defined):AID1777, AID1785, AID1786, AID2133]; type: functional
T5 sequence (P41143 whole entry): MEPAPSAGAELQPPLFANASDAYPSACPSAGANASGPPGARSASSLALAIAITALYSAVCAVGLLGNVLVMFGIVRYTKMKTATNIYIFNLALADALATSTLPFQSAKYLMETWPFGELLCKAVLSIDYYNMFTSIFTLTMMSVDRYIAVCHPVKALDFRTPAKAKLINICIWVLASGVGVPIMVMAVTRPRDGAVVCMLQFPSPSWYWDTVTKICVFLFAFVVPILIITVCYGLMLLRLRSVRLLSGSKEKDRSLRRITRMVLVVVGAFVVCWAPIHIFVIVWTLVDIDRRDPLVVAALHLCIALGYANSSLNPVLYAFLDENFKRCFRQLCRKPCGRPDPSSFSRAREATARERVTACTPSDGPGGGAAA

Mu-type opioid receptor [32] = target: T1, Mu-type opioid receptor; experiment: HTS Image-Based Screen for Agonists of the MOR Receptor. [Related pubchem assays (depositor defined):AID1777, AID1785, AID1786, AID2133]; type: functional
[33] = target: T5, Delta-type opioid receptor; experiment: HTS Image-Based Screen for Agonists of the DOR Receptor. [Related pubchem assays (depositor defined):AID1777, AID1786, AID2133]; type: functional
[34] = target: T6, Kappa-type opioid receptor (Homo sapiens, UniProt P41145); type: functional
Beta-galactosidase [35] = target: T3, Beta-galactosidase; type: functional
[36] = target: T6, Kappa-type opioid receptor; type: functional; remark: listed apart in the source
[37] = target: SWI/SNF-related matrix-associated actin-dependent regulator of chromatin subfamily A member 2 (Homo sapiens, UniProt P51531); experiment: Luminescence-based cell-based high throughput dose response assay to identify activators of the function of SWI/SNF related, matrix associated, actin dependent regulator of chromatin, subfamily a, member 2 (SMARCA2, BRM).; type: functional
[38] = Counterscreen for activators of the function of SWI/SNF related, matrix associated, actin dependent regulator of chromatin, subfamily a, member 2 (SMARCA2, BRM): Luminescence-based cell-based high throughput dose response assay to identify non-selective compounds using the VP16 reporter assay.; type: functional
[39] = potency of ADAM10 substrate cleavage blockers – biochemical, QFRET, dose response (AID 743254);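 further: ADAM10 enzyme with the DM2 quenched FRET peptide as substrate; EDANS fluorescence gain as the protease cuts the substrate; inhibitor potency against ADAM10 proteolytic activity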
[40] = target: Disintegrin and metalloproteinase domain-containing protein 17 (Homo sapiens, UniProt P78536); experiment: inhibition of ADAM17 substrate cleavage – biochemical, quenched FRET substrate, counter-screen for ADAM10 exosite inhibitor project, dose response (AID 743253)

T1 sequence (P35372 whole entry): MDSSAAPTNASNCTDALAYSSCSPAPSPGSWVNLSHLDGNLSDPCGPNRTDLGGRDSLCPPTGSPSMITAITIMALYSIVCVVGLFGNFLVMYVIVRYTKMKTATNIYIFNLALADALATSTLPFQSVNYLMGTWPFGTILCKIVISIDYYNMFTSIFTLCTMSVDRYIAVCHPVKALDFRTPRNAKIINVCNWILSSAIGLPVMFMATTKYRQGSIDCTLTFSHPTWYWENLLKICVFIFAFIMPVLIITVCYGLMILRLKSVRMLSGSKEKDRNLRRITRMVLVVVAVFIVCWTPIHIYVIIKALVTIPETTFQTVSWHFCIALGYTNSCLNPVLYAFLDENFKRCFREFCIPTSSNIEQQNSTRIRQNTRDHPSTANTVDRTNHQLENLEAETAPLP

## c1ccc(N2CCN(Cc3ccsc3)CC2)nc1
Mu-type opioid receptor [1]
  EC50: 92.4 µM (inactive)
[2]
  EC50: 0.125 µM (active)

## O=C1NC(=O)c2cc(NC(=O)C3CCCO3)ccc21 (stereo not drawn)
[3]
  IC50: 2.39 µM (active)

## CC1=CC(C)(C)Nc2ccc(OC(=O)C(C)N3C(=O)c4ccccc4C3=O)cc21 (stereo not drawn)
[4]
  EC50: 8.18 µM (active)
[5]
  EC50: 7.55 µM (active)
[6]
  IC50: > 80 µM (inactive)
[7]
  IC50: 11.1 µM (inactive)

## COCCCN1C(=O)C(O)=C(C(=O)c2ccc(OC)cc2C)C1c1cccnc1 (stereo not drawn)
fMet-Leu-Phe receptor
  Ki: > 66.7 µM (inactive)
Cytochrome P450 3A4
  AC50: 20 µM (inconclusive)

## Cc1cc2cc(CNC(=O)c3cccc([N+](=O)[O-])c3)ccc2[nH]1
[8]
  IC50: > 66 µM (inactive)
[9]
  IC50: > 66 µM (inactive)
[10]
  EC50: > 20 µM (inactive)

## COc1ccc(C2(C)NC(=O)N(CC(=O)NCCC3=CCCCC3)C2=O)cc1OC (stereo not drawn)
[11]
  EC50: > 112 µM (not active)
[12]
  EC50: > 112 µM (not active)
[13]
  IC50: 35.9 µM (inactive)
Steroidogenic factor 1
  IC50: 5.24 µM (active)
[14]
  IC50: 35.9 µM (inactive)

## CCOc1cc(CN2CCN(c3ncccn3)CC2)ccc1OC
Mu-type opioid receptor [1]
  EC50: 92.5 µM (inactive)
[2]
  EC50: 76.1 µM (inactive)

## COc1ccccc1CCNC(=O)C1CCN(C(=O)/C=C/c2ccccc2)CC1
[15]
  IC50: 13.9 µM (active)
[16]
  IC50: 14.6 µM (active)
Beta-galactosidase [17]
  IC50: > 80 µM (inactive)

## CCCC(=O)NC(c1cccs1)c1cc([N+](=O)[O-])c2cccnc2c1O (stereo not drawn)
Nonstructural protein 1
  IC50: 13.1 µM (active)
[18]
  IC50: 89.3 µM (active)
[19]
  IC50: 3.26 µM (active)
Prothrombin
  IC50: 83.6 µM (active)

## CCOC(=O)c1c(SCC(=O)Nc2nccs2)nc(C)c(C)c1C
Cells [20]
  IC50: > 67.5 µM (inactive)
[21]
  IC50: > 67.5 µM (inactive)

## Cc1cc(N2CCN(C)CC2)nc2ccc(NC(S)=NCCC(C)C)cc12
[22]
  EC50: 0.746 µM (active)
[23]
  EC50: 8.05 µM (active)
[24]
  AC50: 1.24 µM (active)
[25]
  AC50: 28.2 µM (active)

## Nc1cc(N)c2c(c1)C(=O)c1ccccc1-2
[26]
  IC50: > 122 µM (inactive)

## CCCc1cc(=O)oc2cc(OCC(=O)NCCc3ccc(S(N)(=O)=O)cc3)ccc12
[13]
  IC50: 35.9 µM (inactive)
Steroidogenic factor 1
  IC50: 7.47 µM (active)
[14]
  IC50: 35.9 µM (inactive)

## CC(=O)Nc1cc(-c2ccc(N(C)C)cc2)cn2c(-c3ccc(F)cc3)cnc12
Melanocortin receptor 4
  EC50: > 9.91 µM (active)
Beta-galactosidase [17]
  IC50: > 80 µM (inactive)

## COc1ccccc1C(CNC(=O)c1ccc(C)c(S(=O)(=O)N2CCCCC2)c1)N1CCCC1 (stereo not drawn)
[10]
  EC50: > 20 µM (inactive)

## COC(=O)[C@]12CCCCC=C1N(Cc1ccccc1)C(=O)[C@H](CC(=O)NCCc1ccccc1OC)C2
Cells [27]
  IC50: 27.7 µM (inactive)
[28]
  EC50: 2.49 µM (active)
[29]
  IC50: 4.83 µM (active)
Cells [30]
  EC50: > 29.9 µM (inactive)

## O=C(NC1CCCCC1)C(C1CC1)n1c(=O)c(-c2ccco2)nc2ccccc21 (stereo not drawn)
[7]
  IC50: 2.17 µM (active)

## CCOc1ccc(NC(=O)c2ccc3c(c2)N(C)CCS3)cc1
Cells [20]
  IC50: > 67.6 µM (inactive)
[21]
  IC50: > 67.6 µM (inactive)

## C(=C\c1ccc2nncn2c1)/c1ccccc1
[3]
  IC50: 1.45 µM (active)

## COc1ccc(-c2cc(=O)n(-c3nc4ccccc4[nH]3)[nH]2)cc1
[31]
  IC50: > 32 µM (inactive)
Mu-type opioid receptor [32]
  EC50: > 32 µM (inactive)
[33]
  EC50: > 32 µM (inactive)
[34]
  IC50: 9.08 µM (active)
Beta-galactosidase [35]
  EC50: > 31.5 µM (inactive)
[36]
  IC50: > 32 µM
[37]
  EC50: > 91.2 µM (inactive)
[38]
  EC50: > 91.2 µM (inactive)

## CCN(CC)c1ccc(NC(=O)CSc2nc3ccccc3c(=O)n2-c2ccc(C)cc2)cc1
[39]
  IC50: > 69.5 µM (inactive)
[26]
  IC50: 60.3 µM (inactive)
[40]
  IC50: > 69.5 µM (inactive)
